Structures can show the parent of a compound that is named as a salt. *1 amine or outer side, *2 acyl side, *3 side chain or, on linkers, in order; H or OH if unused. Where a SMILES comes first, the peptide text is derived from it. Bridges are numbered along the chain shown (N, C = ends). [ ]: non-standard residue; d: D form. The star is where a group is joined. pTerphenylCO(4''-OnC5H11) = CCCCCOc1ccc(-c2ccc(-c3ccc(C(=O)*)cc3)cc2)cc1; Orn(4R-OH,5R-OH) = O=C([C@H](C[C@@H](O)[C@@H](O)N[*:3])N[*:1])[*:2]; hTyr(3S-OH,4S-OH) = N[C@H](C(=O)O)[C@H](O)[C@@H](O)c1ccc(O)cc1; Pro(3S-OH,4S-Me) = C[C@H]1CN[C@H](C(=O)O)[C@H]1O; Hyp = O=C(O)[C@@H]1C[C@@H](O)CN1
Tested on: hDMFa myofibroblast cells
Experiment: not given
Conditions: not given

Compound	Compound Myofibroblast Cytotoxicity Activity
C[C@]12CC[C@@H]3c4ccc(OS(=O)(=O)O)cc4CC[C@H]3[C@@H]1CCC2=O [Cmpd 432, Estropipate]	+++
C#C[C@]1(O)CC[C@H]2[C@@H]3CCC4=CCCC[C@@H]4[C@H]3C(=C)C[C@@]21CC [Cmpd 344, Desogestrel]	+++
C/C1=C2/[N-][C@H]([C@H](CC(N)=O)[C@@]2(C)CCC(=O)NC[C@@H](C)OP(=O)([O-])O[C@H]2[C@@H](O)[C@@H](n3cnc4cc(C)c(C)cc43)O[C@@H]2CO)[C@]2(C)N=C(/C(C)=C3N=C(/C=C4N=C1[C@@H](CCC(N)=O)C\4(C)C)[C@@H](CCC(N)=O)[C@]\3(C)CC(N)=O)[C@@H](CCC(N)=O)[C@]2(C)CC(N)=O.[CH3-].[Co+3] [Cmpd 662, Methylcobalamin]	++
CN1CCN(c2ccc(C(=O)Nc3n[nH]c4ccc(Cc5cc(F)cc(F)c5)cc34)c(NC3CCOCC3)c2)CC1 [Cmpd 419, Entrectinib]	+++
C/C=C/C=C/C(=O)O [Cmpd 881, Sorbic acid]	++
C#CCN[C@@H]1CCc2ccccc21 [Cmpd 821, Rasagiline]	++
OCc1cc(C(O)CNCCCCCCOCCCCc2ccccc2)ccc1O (stereo not drawn) [Cmpd 849, Salmeterol xinafoate]	+++
O=C(Nc1ccc([N+](=O)[O-])cc1Cl)c1cc(Cl)ccc1O [Cmpd 708, Niclosamide]	++
COc1cc(Nc2ncc(F)c(Nc3ccc4c(n3)N(COP(=O)([O-])[O-])C(=O)C(C)(C)O4)n2)cc(OC)c1OC.[Na+].[Na+] [Cmpd 816, R788 disodium]	++
CC(O)C(=O)O.CC(O)C(=O)O.CN1CCN(c2ccc3nc(-c4c(N)c5c(F)cccc5[nH]c4=O)[nH]c3c2)CC1 [Cmpd 383, Dovitinib Dilactic acid]	+++
C=C(C)[C@@H]1CC=C(C)C(=O)C1 [Cmpd 24, (R)-(−)-Carvone]	++
Cc1coc2c1C(=O)C(=O)c1c-2ccc2c(C)cccc12 [Cmpd 912, Tanshinone I]	+++++
CSCC[C@H](N)C(=O)O [Cmpd 600, L-Methionine]	++++
Cc1c(C)c2c(c(C)c1O)CCC(C)(CCCC(C)CCCC(C)CCCC(C)C)O2 (racemic) [Cmpd 373, DL-α-Tocopherol]	++
O=C(O)Cc1ccccc1Nc1c(Cl)cccc1Cl [Cmpd 355, Diclofenac]	++
N.S=C(S)N1CCCC1 [Cmpd 811, Pyrrolidinedithiocarbamate ammonium]	++
C=C1CC[C@H](O)C/C1=C/C=C1\CCC[C@]2(C)[C@@H]([C@H](C)CCCC(C)(C)O)CC[C@@H]12 [Cmpd 202, Calcifediol]	+++
CC(=O)O[C@H]1C[C@@]2(C)[C@@H](C[C@@H](O)[C@H]3[C@@]4(C)CC[C@@H](O)[C@@H](C)[C@@H]4CC[C@@]32C)/C1=C(\CCC=C(C)C)C(=O)O [Cmpd 477, Fusidic Acid (sodium salt)]	+++

Tested on: hDMFa myofibroblast cells
Experiment: Myofibroblast cytotoxicity, MTS cell viability assay
Conditions: 8-12 hours in serum-free inhibitor media, […]

Compound	Compound Myofibroblast Cytotoxicity Activity
Nc1ccc2cc3ccc(N)cc3nc2c1.Nc1ccc2cc3ccc(N)cc3nc2c1.O=S(=O)(O)O [Cmpd 798, Proflavine Hemisulfate]	+++++
CCCCCCCCN=c1ccn(CCCCCCCCCCn2ccc(=NCCCCCCCC)cc2)cc1 [Cmpd 730, Octenidine (dihydrochloride)]	+++++
C#C[C@]1(O)CC[C@H]2[C@@H]3CCC4=CCCC[C@@H]4[C@H]3CC[C@@]21C [Cmpd 623, Lynestrenol]	+++++
NCCC(=O)N[C@@H](Cc1cnc[nH]1)C(=O)O [Cmpd 568, L-Carnosine]	8
CCCCCCCCCCCCCCCCCCOP(=O)([O-])OC1CC[N+](C)(C)CC1 [Cmpd 771, Perifosine]	+++++
CC(=O)Oc1cc(C)c(OC(C)=O)c2ccccc12 [Cmpd 650, Menadiol Diacetate]	+++++

Same assay, conditions: 8-12 hours in serum-free inhibitor media, […], HCl

Compound	Compound Myofibroblast Cytotoxicity Activity
Cl.NCCCC[C@H](N)C(=O)O [Cmpd 597, L-Lysine HCl]	+

Same assay, conditions: MTS viability, 8-12 hours incubation in serum-free inhibitor media, normalized to negative control

Compound	Compound Myofibroblast Cytotoxicity Activity
CO[C@H]1C[C@H](O[C@H]2[C@H](C)O[C@@H](O[C@@H]3/C(C)=C/C[C@@H]4C[C@@H](C[C@]5(C=C[C@H](C)[C@@H](C6CCCCC6)O5)O4)OC(=O)[C@@H]4C=C(C)[C@@H](O)[C@H]5OC/C(=C\C=C\[C@@H]3C)[C@]54O)C[C@@H]2OC)O[C@@H](C)[C@@H]1O [Cmpd 379, Doramectin]	+++++
CCCCCCCCCCCC[N+](C)(C)CCOc1ccccc1 [Cmpd 377, Domiphen Bromide]	+++++
CC(C)(C)c1cc(C(C)(C)C)c(NC(=O)c2c[nH]c3ccccc3c2=O)cc1O [Cmpd 545, Ivacaftor (VX-770)]	+++++

Same assay, conditions: serum-free media with inhibitor 8-12 hours, MTS cell viability, inhibition normalized as percentage of negative control

Compound	Compound Myofibroblast Cytotoxicity Activity
COc1ccc2c(c[n+](C)c3c4cc5c(cc4ccc23)OCO5)c1OC.[Cl-] [Cmpd 244, Chelerythrine Chloride]	+++++
OCCCCCCCCO [Cmpd 38, 1,8-Octanediol]	+
Cc1cc(O)cc(C(C)C)c1 [Cmpd 53]	+
COC(=O)OCOc1c2n(ccc1=O)N([C@@H]1c3ccccc3SCc3c1ccc(F)c3F)[C@@H]1COCCN1C2=O [Cmpd 155, Baloxavir marboxil]	+++++
C[C@H]1[C@H](C)CC[C@]2(C(=O)O)CC[C@]3(C)C(=CC[C@@H]4[C@@]5(C)C[C@@H](O)[C@H](O)[C@@](C)(CO)[C@@H]5CC[C@]43C)[C@H]12 [Cmpd 135, Asiatic acid]	+++++
CCCCCOc1ccc(-c2ccc(-c3ccc(C(=O)N[C@H]4C[C@@H](O)[C@@H](O)NC(=O)[C@@H]5[C@@H](O)[C@@H](C)CN5C(=O)[C@H]([C@@H](C)O)NC(=O)[C@H]([C@H](O)[C@@H](O)c5ccc(O)cc5)NC(=O)[C@@H]5C[C@@H](O)CN5C(=O)[C@H]([C@@H](C)O)NC4=O)cc3)cc2)cc1 [Cmpd 124, Anidulafungin] ({pTerphenylCO(4''-OnC5H11)}-[Orn(4R-OH,5R-OH)]T[Hyp][hTyr(3S-OH,4S-OH)]T[Pro(3S-OH,4S-Me)]; lactam 1-C)	+++++
CC1=C(C(=O)OC(C)C)C(c2cccc([N+](=O)[O-])c2)C(C(=O)OC2CN(C(c3ccccc3)c3ccccc3)C2)=C(N)N1 (stereo not drawn) [Cmpd 148, Azelnidipine]	+++++

Same assay, conditions: serum-free media with inhibitor 8-12 hours, MTS viability normalized to negative control

Compound	Compound Myofibroblast Cytotoxicity Activity
CN[C@@H]1C[C@H]2O[C@@](C)([C@@H]1OC)n1c3ccccc3c3c4c(c5c6ccccc6n2c5c31)C(=O)NC4 [Cmpd 888, Staurosporine]	+++++
Br.Cc1ccc(Sc2ccccc2N2CCNCC2)c(C)c1 [Cmpd 1012, Vortioxetine (Lu AA21004) HBr]	+++++
COc1ccc2c(O[C@@H]3C[C@H]4C(=O)N[C@]5(C(=O)NS(=O)(=O)C6CC6)C[C@H]5/C=C\CCCCN(C)C(=O)[C@@H]4C3)cc(-c3nc(C(C)C)cs3)nc2c1C [Cmpd 863, Simeprevir]	+++++
Sericin Gel [Cmpd 859]	+

Source: patent US20260102359A1, “COMBINATION TREATMENT OF DERMAL AND TRANSDERMAL FIBROTIC DISEASES, DISORDERS AND ASSOCIATED PAIN AND INFLAMMATION” (ERESINA, LLC, priority 2022, published 2026)
